According to patent publication US8859464B2, “Nitrogen containing isethionic acid salts in field ready spray and tank mixes” (Huntsman Petrochemical L LC, priority 2009, dated 2014):

Tested on: target weed species
Assay: Water conditioning efficacy in greenhouse evaluation of isopropylamine glyphosate spray tank solutions in hard water
Assay type: in vivo
Conditions: aqueous spray tank solutions of isopropylamine glyphosate, standard hard water, absence of any surfactant, compared with ammonium sulfate
Procedure: Isethionic acid (Example 1) and ten neutralization products of isethionic acid (Examples 2-11) were used to treat aqueous spray tank solutions of isopropylamine glyphosate in order to measure the water conditioning efficacy of isethionic acid and the other isethionates. Isethionic acid was neutralized with sodium (Examples 2, 6, and 7), ammonia (Examples 3-5) and tallow amine ethoxylates (Examples 8-11—SURFONIC® T-5 surfactant). These candidates were evaluated against the standard agricultural water conditioner, ammonium sulfate in an aqueous tank mix of isopropylamine glyphosate (Control Example). Specifically, the candidates were tested for their ability to condition water as a function of the suppression of water hardness inhibition of pesticides, such as glyphosate. All evaluations were run in the absence of any surfactant in standard hard water as defined by the World Health Organization standard hard waters. The evaluations were run in greenhouse conditions over a variety of plant species, including determining injury to crop species. The reported data was percent control of target weed species and percent injury to crop species. All evaluations (except for one industry standard) were conducted in the absence of any surfactant.

O=S(=O)(O)CCO [isethionic acid, Isethionic Acid]
water conditioning efficacy (suppression of water hardness inhibition of glyphosate): functioned at a level comparable to that of the agricultural industry standard ammonium sulfate
